Source: patent publication US20260355192A1, “PROPHYLACTIC OR THERAPEUTIC AGENT FOR PERIOSTIN-MEDIATED DISEASE AND PRURITUS ASSOCIATED THEREWITH” (SAGA UNIVERSITY, priority 2022, published 2026)

Columns and labels:
[1] = tested on: scratching behaviors in FADS mice; experiment: Scratching behaviors in FADS mice upon single systemic administration of αvβ3 integrin inhibitors; format: in vivo, mouse (FADS, Nestin-cre/Ikk2ff)
Description: Nestin-cre transgenic mice were crossed with IKK2^ff mice to prepare Nestin-cre/Ikk2^ff mice specifically lacking IKK2 in their facial skin fibroblasts (Nunomura S, et al. J Invest Dermatol. 139:1274-1283, 2019). These mice inevitably develop atopic dermatitis-like rash limited to the face and intense itchy symptoms, and were therefore designated as Facial Atopic Dermatitis with Scratching (FADS) mice. […] For evaluation of the prophylactic or therapeutic agent of the present invention, FADS mice at 3 to 4 weeks of age or older were used because of showing spontaneous scratching behaviors. It should be noted that in this Example section, the above compound of formula (I) (more particularly “CP4715”) was used as the prophylactic or therapeutic agent of the present invention.
FADS mice were acclimated for 20 minutes to the environment of a recording cage, and then recorded with a video camera. The recorded videos were replayed, and scratching behaviors were counted assuming that hind paw scratching to the face and the subsequent movement of toe licking or paw lowering to the ground were regarded as one cycle of scratching behavior.
Prior to the administration of the above αvβ3 integrin inhibitors, FADS mice were recorded for 60 minutes with a video camera and then allowed to rest for 15 minutes. The compounds except for GLPG-0187 were each dissolved at 89.5 mM in a diluent (physiological saline containing 50% DMSO and 89.5 mM HCL), from which an amount corresponding to 53.7 μmol/kg per mouse was then taken and diluted with 0.3 mL of PBS, and then administered intraperitoneally. […] Mice administered with 0.3 mL of PBS containing an equal amount of the diluent as calculated based on the body weight were used as a control group.
The mice were recorded for 60 minutes with a video camera immediately after administration of the above αvβ3 integrin inhibitors. The number of scratchings before administration was used as a baseline, and % change from the baseline after administration was calculated for each compound. For statistical analysis, paired t-test was used. A P-value of less than 0.05 was considered to be statistically significant. The effect of an inhibitor whose mean change from the baseline was −65% or more at a P-value of less than 0.01 was expressed as “++”; the effect of an inhibitor whose mean change from the baseline was −60% or less at a P-value of less than 0.05 was expressed as “+”; and the effect of an inhibitor whose mean change from the baseline was −60% or less at a P-value of 0.05 or higher was expressed as “−.”

[2] = target: T1, integrin αvβ3 (Homo sapiens, UniProt P05106+P06756); experiment: Inhibition of periostin-dependent adhesion of SW480 cells expressing integrin αvβ3; format: cell-based; conditions: immobilized recombinant human periostin, FIG. 6
T1 construct: SW480 cells, a human colon cancer cell line not expressing integrin β3; expressed in transfected cells; host or cells: SW480 cells (human colon cancer) stably expressing human integrin β3
T1 sequence (P06756 31-889 limits assumed): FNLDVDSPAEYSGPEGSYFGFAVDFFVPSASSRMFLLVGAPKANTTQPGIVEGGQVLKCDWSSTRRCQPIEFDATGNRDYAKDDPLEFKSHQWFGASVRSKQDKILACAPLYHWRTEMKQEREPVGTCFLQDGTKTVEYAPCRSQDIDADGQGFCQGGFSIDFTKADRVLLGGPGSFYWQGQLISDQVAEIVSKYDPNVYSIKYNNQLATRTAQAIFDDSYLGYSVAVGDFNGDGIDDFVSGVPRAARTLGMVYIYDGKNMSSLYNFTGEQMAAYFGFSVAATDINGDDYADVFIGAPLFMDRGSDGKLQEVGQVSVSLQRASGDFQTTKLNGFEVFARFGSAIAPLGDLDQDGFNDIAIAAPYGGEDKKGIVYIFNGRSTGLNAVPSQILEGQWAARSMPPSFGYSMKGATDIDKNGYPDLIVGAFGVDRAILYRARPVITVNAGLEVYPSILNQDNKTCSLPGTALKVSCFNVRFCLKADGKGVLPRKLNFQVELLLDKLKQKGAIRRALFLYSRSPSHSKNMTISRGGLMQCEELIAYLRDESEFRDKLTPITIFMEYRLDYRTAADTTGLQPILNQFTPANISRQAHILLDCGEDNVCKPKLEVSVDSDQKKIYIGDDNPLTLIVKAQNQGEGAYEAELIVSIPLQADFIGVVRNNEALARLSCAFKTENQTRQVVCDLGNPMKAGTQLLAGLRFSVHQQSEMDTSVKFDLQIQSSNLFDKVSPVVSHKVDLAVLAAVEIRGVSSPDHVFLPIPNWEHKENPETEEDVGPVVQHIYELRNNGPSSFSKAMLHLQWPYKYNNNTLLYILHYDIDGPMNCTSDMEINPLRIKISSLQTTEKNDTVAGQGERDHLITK
T1 sequence (P06756 891-1048 partner limits assumed): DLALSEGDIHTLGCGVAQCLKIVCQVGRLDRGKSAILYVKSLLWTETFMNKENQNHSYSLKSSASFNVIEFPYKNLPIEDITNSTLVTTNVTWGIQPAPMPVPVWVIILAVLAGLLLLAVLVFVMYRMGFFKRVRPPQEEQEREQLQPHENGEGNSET
T1 sequence (P05106 27-788): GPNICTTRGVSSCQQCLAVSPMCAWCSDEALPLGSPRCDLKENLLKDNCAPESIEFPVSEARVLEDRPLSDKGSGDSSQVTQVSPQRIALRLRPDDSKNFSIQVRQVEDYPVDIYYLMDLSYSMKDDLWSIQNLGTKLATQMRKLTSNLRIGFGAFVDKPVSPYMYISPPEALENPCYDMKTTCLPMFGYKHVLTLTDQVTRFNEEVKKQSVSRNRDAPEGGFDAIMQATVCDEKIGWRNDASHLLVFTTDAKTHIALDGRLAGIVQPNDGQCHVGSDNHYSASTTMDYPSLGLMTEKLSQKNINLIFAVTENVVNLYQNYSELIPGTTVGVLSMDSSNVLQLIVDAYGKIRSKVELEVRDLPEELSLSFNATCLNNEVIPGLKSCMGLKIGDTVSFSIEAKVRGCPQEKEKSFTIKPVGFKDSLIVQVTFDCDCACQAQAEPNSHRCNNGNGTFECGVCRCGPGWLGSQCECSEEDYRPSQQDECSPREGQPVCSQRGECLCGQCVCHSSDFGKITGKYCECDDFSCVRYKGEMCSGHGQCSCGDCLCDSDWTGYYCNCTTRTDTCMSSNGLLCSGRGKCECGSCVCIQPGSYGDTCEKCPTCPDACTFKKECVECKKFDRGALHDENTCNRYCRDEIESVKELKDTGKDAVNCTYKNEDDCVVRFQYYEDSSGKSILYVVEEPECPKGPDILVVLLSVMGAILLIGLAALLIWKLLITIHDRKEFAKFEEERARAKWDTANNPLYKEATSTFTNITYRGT
Procedure: For use in cell adhesion experiments, SW480 cells, a human colon cancer cell line not expressing integrin β3, were genetically engineered to stably express human integrin β3 (Nanri Y, et al. Am J Respir Cell Mol Biol. 62:204-216, 2020). The compounds shown in Table 1 were examined for their inhibitory activity against adhesion between integrin αvβ3 and periostin according to the following procedures. First, a 96-well plate was treated with 10 μg/mL recombinant human periostin (Bio-Techne) at 4 °C for 16 hours to immobilize periostin. The SW480 cells expressing integrin αvβ3 (5×10^4 cells) were reacted at room temperature for 15 minutes with the above compounds at 0.001, 0.01, 0.1 and 1 μM in serum-free DMEM (Dulbecco's Modified Eagle Medium) containing 0.5% bovine serum albumin and 0.25 mM MnCl2. A group receiving no compound was used as a control. The reacted cell suspensions were added to separate wells of the above human periostin-immobilized plate, and the plate was centrifuged at 10×g for 5 minutes and then cultured at 37 °C for 60 minutes. Then, after the adhered cells were washed to remove unbound cells, the adhered cells were fixed with 1% formaldehyde and stained with 0.5% crystal violet. The fixed and stained cells were solubilized with 0.2% Triton X-100 and measured for absorbance at 595 nm. The absorbance of the control (i.e., the group receiving no compound) was set to 0% inhibition. […] Cell adhesion in this test system is periostin-dependent, and a compound inhibiting this cell adhesion can be referred to as a periostin receptor antagonist.

[3] = tested on: glycoprotein (GP) IIb/IIIa receptor; conditions: cited from earlier work
[4] = tested on: αvβ3 integrin; conditions: cited from earlier work

For COc1cc(C(=O)NC[C@H](NS(=O)(=O)c2ccccc2)C(=O)O)ccc1N1CCC(NC2=NCCCN2)CC1 [CP4715, (S)-3-(3-methoxy-4-(4-((1,4,5,6-tetrahydropyrimidin-2-yl)amino)piperidin-1-yl)benzamido)-2-(phenylsulfonamido)propanoic acid], the “% Change from baseline in the number of scratchings (mean ± standard error)” value ([1]; 53.7 μmol/kg i.p., single, 60 minutes after administration vs before administration) was −68.0 ± 14.0%, the “grade of effect on % change from the baseline in the number of scratchings” value ([1]; single i.p., 53.7 μmol/kg (GLPG-0187 5.37 μmol/kg), paired t-test) was “++ (mean change from the baseline was −65% or more at a P-value of less than 0.01)” and the IC50 ([2]; SW480 cells expressing human integrin β3, compounds at 0.001-1 μM, read-out: 50% inhibition concentration (IC50 value) for cell adhesion inhibitory activity) was at most 1 nM. For the same compound, the “cell adhesion inhibitory effect (in words)” value ([2]; SW480 cells expressing integrin αvβ3) was “high”, the “antagonistic effect on GP IIb/IIIa receptor” value [3] was “antagonistic effect” and the “antagonistic effect on αvβ3 integrin” value [4] was “antagonistic effect”.
